Data from patent US11541065B2, “Compositions and methods for treating brain injury” (UNM RAINFOREST INNOVATIONS, priority 2018, dated 2023).

What was measured:
cPLA2 = cPLA2 activity in WT and GluN2A-KO mouse neuronal lysates; format: cell-based, mice; settings: L-homocysteine 50 μM, four hours
Method: Neuron cultures were treated with or without L-homocysteine in the presence or absence of pharmacological inhibitors for the time period specified in each experiment. The medium was collected from each experimental plate and centrifuged at 1000 rpm for five minutes to remove cellular debris. Equal amounts (100 μl) of the supernatant from each sample were used to determine the amount of PGE2 using the PGE2 enzyme immunoassay kit according to the manufacturer's instructions. For measurement of cPLA2 activity, the neuronal cells from the above treated conditions were harvested in ice-cold Tris-buffered saline (pH7.4) containing sodium pyrophosphate as phosphatase inhibitor, sonicated three times with five-second bursts and two minutes on ice between intervals. The lysed cell suspensions were centrifuged at 10,000 rpm for 10 minutes and the supernatant removed. Equal amounts of protein from the supernatant (assessed using BCA protein estimation kit) were estimated for activity of cPLA2 using cPLA2 activity assay kit according to the manufacturer's protocol.
For measurement of cPLA2 activity and MCP-1 levels in cell lysates, neuronal lysates were prepared by harvesting neurons in ice-cold Tris-buffered saline (pH 7.4) containing phosphatase inhibitor, sonicated three times in five-second bursts and placed on ice (two minutes) between each burst of sonication. […]

[1] = Total plasma homocysteine after osmotic pump implantation, mice (HPLC); format: in vivo, WT and GluN2A-KO mice; settings: mouse, subcutaneous, 200 mM solution (200 μl osmotic pump, flow rate 1 μl/hr), osmotic pump with 200 mM L-homocysteine; for concentration at 5 day: day 5
Method: L-homocysteine (200 mM) was freshly prepared by alkali hydrolysis of L-homocysteine thiolactone hydrochloride followed by neutralization, and maintained in 0.02 mM of N-Tris(hydroxymethyl)methyl-2-aminoethanesulfonic acid buffer pH 7.4 as previously described (Poddar et al., 2001, Circulation, 103:2717-2723). Osmotic pumps (Alzet, 2ML1, flow rate 10 μl/hr; Durect Corp., Cupertino, Calif.) containing either 2 ml of freshly prepared 200 mM L-homocysteine (for hyperhomocysteinemia) or normal saline (for control) were surgically implanted subcutaneously on the back and posterior to the scapulae of male Wistar rats under anesthesia (2% isoflurane in medical grade oxygen). The incision was closed after implantation and the rats were allowed to recover in their cage. For both WT and GluN2A-KO mice, osmotic pumps (Alzet, 2001, flow rate 1 μl/hr; Durect Corp., Cupertino, Calif.) containing either 200 μl of freshly prepared 200 mM L-homocysteine (for hyperhomocysteinemia) or normal saline (for control) were implanted similarly.
Blood was obtained from rats (retro-orbital) and mice (cardiac puncture) under anesthesia with 2% isoflurane in medical grade oxygen, before installation of osmotic pumps (0 day) and at various time points after installation of osmotic pumps (rats: day 3, day 5, and day 7; mice: day 3 and day 5). Blood was collected in standardized VACUTAINER venous blood collection EDTA-tubes (ThermoFisher Scientific, Inc., Waltham, Mass.) and centrifuged at 3,500 rpm for 15 minutes. The plasma obtained was analyzed for total plasma homocysteine levels using high performance liquid chromatography with post-column fluorescence detection as previously described (Gilfix et al., 1997, Clin Chem 43:687-688; Jacobsen et al., 1994, Clin Chem 40:873-881; Miller et al., 2013, Am J Clin Nutr 97:827-834).

MCP-1 = MCP-1 expression and release from neuron cultures (enzyme immunoassay); format: cell-based
Method: For measurement of cPLA2 activity and MCP-1 levels in cell lysates, neuronal lysates were prepared by harvesting neurons in ice-cold Tris-buffered saline (pH 7.4) containing phosphatase inhibitor, sonicated three times in five-second bursts and placed on ice (two minutes) between each burst of sonication. The lysed cell suspensions were centrifuged at 10,000 rpm (10 minutes) and the supernatant was collected in another tube. Equal amounts of protein from the supernatant were processed for cPLA2 activity assay according to the manufacturer's protocol. Equal protein from the lysates were also used to estimate MCP-1 levels using an MCP-1 ELISA kit.
For measurement of PGE2 levels and MCP-1 levels released from neurons, culture medium was collected from each experimental plate and centrifuged at 1000 rpm for five minutes to remove cellular debris. Equal volume (100 μl) of the supernatant from each sample was used to determine PGE2 level using the PGE2 ELISA kit according to the manufacturer's instructions.

[2] = system: hyperhomocysteinemic rats subjected to MCAO; experiment: Accelerated Rotarod test after MCAO; format: in vivo, male Wistar rats; settings: HHcy rats, day 8 post MCAO, NVP-AAM077 1.2 mg/kg; untreated HHcy 96.99±4.11 sec
Method: All rats were subjected to a battery of behavioral tests on day 7 (CatWalk), day 8 (cylinder and rotarod tests) and day 9 (adhesive test) after MCAO to evaluate normal gait, motor coordination and sensory motor functions. Habituation and training (3 days) was performed for one week before MCAO. The first two trainings days were before osmotic pump implantation and the third training day was after pump implantation. An experienced observer blinded to the experimental conditions evaluated all behavioral parameters.
Accelerated Rotarod test: Control, hyperhomocysteinemic and NVP-AAM077 treated hyperhomocysteinemic rats were subjected to the accelerated Rotarod test to evaluate impairment of motor co-ordination and balance following stroke (Bouet et al., 2007, Exp Neurol 203:555-567; Schaar et al., 2010, Exp Transl Stroke Med 2:13). Rats were placed on a rotating cylindrical rod accelerating from 0 to 50 rpm for a period of 180 seconds, and their latency to fall was recorded. The mean of four runs (10 min rest between trials) was used for statistical analysis. One hyperhomocysteinemic rat was excluded from the study as the rat jumped off the rod repeatedly.

## N[C@@H](CCS)C(=O)O [L-homocysteine]
cPLA2; neurons from GluN2A-KO mice
  cPLA2 activity: cPLA2 activity remain unchanged
cPLA2; neurons from WT mice
  cPLA2 activity: cPLA2 activity increase significantly
[1]; GluN2A-KO mice, day 3, day 0 5.72±0.33 μM
  concentration at 3 day: 18.5 ± 2.55 µM
[1]; GluN2A-KO mice
  concentration at 5 day: 15.9 ± 2.09 µM
[1]; WT mice, day 3, day 0 6.6±0.73 μM
  concentration at 3 day: 19 ± 1.68 µM
[1]; WT mice
  concentration at 5 day: 16.7 ± 1.73 µM
MCP-1; L-homocysteine 50 μM, 0, two and four hours, alone
  expression and release of MCP-1 from neurons: progressive increase in expression and release

## C[C@H](NC(c1cccc2[nH]c(=O)c(=O)[nH]c12)P(=O)(O)O)c1ccc(Br)cc1 (stereo partly drawn) [NVP-AAM077, ({[(1S)-1-(4-bromophenyl)ethyl]amino}-(2,3-dioxo-1,4-dihydroquinoxalin-5-yl)methyl)phosphonic acid]
MCP-1; L-homocysteine 50 μM four hours, with DL-AP5 200 μM or NVP-AAM077 30 nM
  effect on homocysteine-induced expression and release of MCP-1: attenuates the expression and release of MCP-1
[2]
  latency to fall from accelerated rotarod: 112.51 ± 4.9 s
